Data as given in article PMC11834790, “Pyridine indole hybrids as novel potent CYP17A1 inhibitors” (Journal of Enzyme Inhibition and Medicinal Chemistry, 2025).

How the values were obtained:
LNCaP cells = assay: Alamar blue (resazurin) cell viability, LNCaP; type: cell-based, human; conditions: 10 µM, 24 and 48 h
Experimental: (§1) LNCaP and RWPE-1 cells were plated in 96-well plates at 10 000 cells per well and incubated overnight at 37 °C with 5% CO2. VCaP cells were plated at 12 000 cells per well under the same conditions. After 24 h, the medium was replaced with fresh medium containing the compounds or abiraterone at a final concentration of 10 µM. Cells were incubated for an additional 24 and 48 h. Cell viability was measured using the Alamar Blue assay. Post-incubation, 0.05 mg/mL Alamar Blue solution in phosphate-buffered saline (PBS) was added to each well. The plates were incubated in the dark at 37 °C for 4 h, and fluorescence was measured at an excitation wavelength of 550 nm and an emission wavelength of 590 nm. Cell viability was calculated relative to control sample treated with DMSO. All experiments were conducted in triplicate.

[1] = test system: adrenal steroidogenesis in NCI-H295R cells; assay: Steroid profiling by LC-MS in NCI-H295R cells; type: cell-based, human; conditions: compounds at 10 µM; for Androsterone, Mean / Testosterone, Mean / Progesterone, Mean / Androstendione, Mean / 17a-Hydroxyprogesterone, Mean / DHEA, Mean / 11-Deoxycortisol, Mean / 11-Deoxycorticosterone, Mean / Pregnenolone, Mean: 1 µM pregnenolone; for Androsterone, Mean / Cortisone, Mean / DHEA-S, Mean / Dihydrotestosterone, Mean: DMSO 0; for Testosterone, Mean: DMSO 0.4785; for Progesterone, Mean: DMSO 4.814; for Androstendione, Mean: DMSO 7.577; for 17a-Hydroxyprogesterone, Mean: DMSO 9.967; for DHEA, Mean: DMSO 15.119; for 11-Deoxycortisol, Mean: DMSO 26.594; for 11-Deoxycorticosterone, Mean: DMSO 28.1555; for Pregnenolone, Mean: DMSO 2043.56; for Cortisone, Mean / DHEA-S, Mean / Dihydrotestosterone, Mean: not detected within the experimental timeframe
Experimental: (§2) Steroid quantification was performed using Liquid Chromatography–Mass Spectrometry (LC-MS), following established protocols to study effect of compounds on adrenal steroidogenesis. Human adrenal NCI-H295R cells were seeded in 12-well plates at 500 000 cells per well and treated with fresh growth medium containing the test compounds for 4 h. Subsequently, 1 µM pregnenolone was added and incubated for an additional 4 h. Steroids were extracted from 500 µL aliquots of cell media, separated, and quantified according to the referenced methodology.

DU-145 cells = assay: Scratch (wound healing) assay; type: cell-based, human; conditions: DU-145, 10 µM; for Wound area, Mean (area remaining open): 24 h, DMSO 170.5
Experimental: Human prostate cancer DU-145 cells show strong cell proliferation and therefore, are an established model for assay of antiproliferative effects of test compounds. DU-145 cells were plated in 24-well plates at 50 000 cells per well and grown until they reached 85% confluence. To inhibit cell proliferation, cells were treated with 5 µg/mL mitomycin for 2 h. A wound was created using a 10 µL pipette tip. The cells were then exposed to drugs at a concentration of 10 µM, while control wells received DMSO. Wound closure was observed and photographed using an optical microscope after 24 h. Images were analysed using ImageJ software (version 1.54j).

CYP17A1 [2] = molecular target: T1, CYP17A1 (Homo sapiens, UniProt P05093); assay: CYP17A1 17α-hydroxylase activity assay in NCI-H295R cells ([14C]-progesterone, TLC); type: cell-based; conditions: 4 h, DMSO = 100, read-out: CYP17A1 Hydroxylase activity, Mean (percentage of activity remaining relative to the control)
T1 construct: immortalised human adrenal cells expressing CYP17A1 and other steroidogenic enzymes; endogenous in cells; host or cells: NCI-H295R (human adrenal cells)
T1 sequence (P05093 1-508): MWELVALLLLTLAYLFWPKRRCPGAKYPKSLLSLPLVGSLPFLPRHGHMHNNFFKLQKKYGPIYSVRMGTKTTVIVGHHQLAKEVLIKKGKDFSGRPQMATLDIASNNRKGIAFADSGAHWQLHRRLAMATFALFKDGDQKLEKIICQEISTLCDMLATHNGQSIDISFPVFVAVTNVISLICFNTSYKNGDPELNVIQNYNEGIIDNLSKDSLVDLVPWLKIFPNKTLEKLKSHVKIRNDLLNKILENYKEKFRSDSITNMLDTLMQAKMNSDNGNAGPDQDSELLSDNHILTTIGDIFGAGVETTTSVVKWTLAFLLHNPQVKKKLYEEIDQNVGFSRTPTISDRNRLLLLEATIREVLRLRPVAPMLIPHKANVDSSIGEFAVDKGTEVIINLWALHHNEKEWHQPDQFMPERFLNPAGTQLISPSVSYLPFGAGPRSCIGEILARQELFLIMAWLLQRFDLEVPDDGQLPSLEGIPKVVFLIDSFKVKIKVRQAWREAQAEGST
Experimental: (§3) Human adrenal NCI-H295R cells are an established model for assay of CYP17A1 activities. The NCI-H295R cells were seeded in 12-well plates at 500 000 cells per well and incubated overnight. On the following day, 10 µM of test compounds were added to the wells with fresh medium and incubated for 4 h. Abiraterone was used as a reference, and DMSO was included as a control. For assessing CYP17A1 hydroxylase activity, cells were treated with [^14C]-Progesterone at 10 000 cpm/1 µM per well. Trilostane was added prior to the test compounds and substrate to inhibit 3β-hydroxysteroid dehydrogenase activity so that a clean assay of only CYP17A1 activity could be performed[20]^,[27]^,[28]. Radiolabeled steroids were extracted from the media using a mixture of ethyl acetate and isooctane (1:1 v/v) and separated by Thin Layer Chromatography (TLC) on silica gel-coated aluminium plates (Supelco® Analytics, Sigma-Aldrich Chemie GmbH, Taufkirchen, Germany). TLC spots were visualised on a phosphor screen and detected by autoradiography using a Typhoon™ FLA-7000 PhosphorImager (GE Healthcare, Uppsala, Sweden). Radioactivity was quantified with ImageQuant™ TL analysis software (GE Healthcare Europe GmbH, Freiburg, Germany), and enzyme activity was expressed as the percentage of radioactivity incorporated into the product relative to the total radioactivity. For CYP17A1 lyase activity, cells were exposed to 50 000 cpm/1 µM [21-^3H]-17α-hydroxypregnenolone per well under similar conditions. The tritiated water release assay was used to measure the conversion of 17OH-Pregnenolone to DHEA. Steroids in the media were precipitated using a 5% activated charcoal/0.5% dextran solution. Enzyme activity was evaluated based on the water-soluble tritiated by-product formed in equimolar amounts with DHEA, with radioactivity in the aqueous phase quantified by liquid scintillation counting (MicroBeta2® Plate Counter, PerkinElmer Inc., Waltham, MA, USA). Percent inhibition was calculated relative to control samples.

VCaP cells = assay: Alamar blue (resazurin) cell viability, VCaP; type: cell-based, human
Experimental: as §1

CYP17A1 [3] = molecular target: T1, CYP17A1; assay: CYP17A1 17,20-lyase activity assay in NCI-H295R cells (tritiated water release); type: cell-based; conditions: 4 h, DMSO = 100, read-out: CYP17A1 Lyase activity, Mean (percentage of activity remaining relative to the control)
Experimental: as §3

CYP17A1 [4] = molecular target: T1, CYP17A1; assay: CYP17A1 activity calculated as ratios of steroid products to substrates (LC-MS); type: cell-based; conditions: normalised to DMSO-treated cells (100%), NCI-H295R
Experimental: as §2
To provide deeper insights into CYP17A1 inhibition, the enzyme activity was calculated using ratios of steroid products to substrates, focusing on dual activities of CYP17A1 (Figure 4(B)).

[5] = Alamar blue (resazurin) cell viability, RWPE-1; type: cell-based; conditions: human, RWPE-1 cells, of the control
Experimental: as §1

CYP17A1 [6] = molecular target: T1, CYP17A1; assay: CYP17A1 17,20-lyase activity assay in NCI-H295R cells (tritiated water release); type: cell-based; conditions: dose-response, read-out: IC50, inhibition of 17,20-lyase activity

For `C[C@]12CC[C@H](O)CC1=CC[C@@H]1[C@@H]2CC[C@]2(C)C(c3cccnc3)=CC[C@@H]12` [ABT, abiraterone, reference compound], the “Cytotoxic effect on LNCaP cells (in words)” value (LNCaP cells) was “notable reduction in cell viability”, the “Androsterone, Mean” value [1] was 0 nmol/L and the “Testosterone, Mean” value [1] was 0.5005 nmol/L. The “Progesterone, Mean” value [1] was 3.809 nmol/L, the “Androstendione, Mean” value [1] was 1.5465 nmol/L and the “17a-Hydroxyprogesterone, Mean” value [1] was 1.202 nmol/L. For the same molecule, the “DHEA, Mean” value [1] was 2.775 nmol/L, the “11-Deoxycortisol, Mean” value [1] was 3.585 nmol/L and the “11-Deoxycorticosterone, Mean” value [1] was 2.6135 nmol/L. For the same molecule, the “Pregnenolone, Mean” value [1] was 2279.668 nmol/L, the “Cortisone, Mean” value [1] was 0 nmol/L and the “DHEA-S, Mean” value [1] was 0 nmol/L. For the same molecule, the “Dihydrotestosterone, Mean” value [1] was 0 nmol/L, the “Wound area, Mean (area remaining open)” value (DU-145 cells) was 935 Pixels^2 and the remaining activity at 10 µM (CYP17A1 [2]) was 14%. The “Cytotoxic effect on VCaP cells (in words)” value (VCaP cells; 10 µM, 24 and 48 h) was “notable reduction in cell viability”, the remaining activity at 10 µM (CYP17A1 [3]) was 24% and the “17α-Hydroxylase activity (ratios of steroid products to substrates)” value (CYP17A1 [4]) was 15.2%. For the same molecule, the “Combined 17α-hydroxylase and 17,20-lyase activity (ratios of steroid products to substrates)” value (CYP17A1 [4]) was about 16.3%, the viability at 24 h, 10 µM ([5]; 24 h) was 84% and the viability at 48 h, 10 µM [5] was 66%.
Work on `c1cncc(-c2cccc(-c3ccc4[nH]ccc4c3)c2)c1` [Compound 12, 5-(3-(Pyridin-3-yl)phenyl)-1H-indole] yielded a remaining activity at 10 µM (CYP17A1 [2]) of 46%, a remaining activity at 10 µM (CYP17A1 [3]) of 48.7% and a viability at 48 h, 10 µM [5] of 85%.
For `N#Cc1c(-c2ccncc2)cc(-c2ccc3[nH]ccc3c2)nc1N` [Compound 5, 2-Amino-6-(1H-indol-5-yl)-[4,4′-bipyridine]-3-carbonitrile], the “Cytotoxic effect on LNCaP cells (in words)” value (LNCaP cells) was “marked reduction in viability”, the “Androsterone, Mean” value [1] was 0.009 nmol/L and the “Testosterone, Mean” value [1] was 0.5215 nmol/L. The “Progesterone, Mean” value [1] was 39.9815 nmol/L, the “Androstendione, Mean” value [1] was 1.4095 nmol/L and the “17a-Hydroxyprogesterone, Mean” value [1] was 1.3865 nmol/L. The “DHEA, Mean” value [1] was 0.748 nmol/L, the “11-Deoxycortisol, Mean” value [1] was 4.0415 nmol/L and the “11-Deoxycorticosterone, Mean” value [1] was 5.503 nmol/L. The “Pregnenolone, Mean” value [1] was 2578.994 nmol/L, the “Cortisone, Mean” value [1] was 0 nmol/L and the “DHEA-S, Mean” value [1] was 0 nmol/L. The “Dihydrotestosterone, Mean” value [1] was 0 nmol/L, the IC50 (CYP17A1 [6]) was 25 nM and the “Wound area, Mean (area remaining open)” value (DU-145 cells) was 1916 Pixels^2. For the same molecule, the “Effect on cell migration (in words)” value (DU-145 cells; after 24 h) was “less pronounced effect comparable to that exerted by abiraterone”, the remaining activity at 10 µM (CYP17A1 [2]) was 20% and the viability at 10 µM (VCaP cells; Homo sapiens, VCaP, 24 h) was under 50%. For the same molecule, the remaining activity at 10 µM (CYP17A1 [3]) was 39.7% and the “17α-Hydroxylase activity (ratios of steroid products to substrates)” value (CYP17A1 [4]) was 1.7%.
